Experimental data from a compilation of properties of binary mixtures (doi:10.1002/aic.14507).

Test: xn = mol fraction of the nth substance listed
Settings: 100 kPa

Row | SMILES | viscosity (303 K, x1 = 0.4462) [mPa·s] | viscosity (303 K, x1 = 0.6298) [mPa·s] | viscosity (313 K, x1 = 0.0098) [mPa·s] | viscosity (313 K, x1 = 0.0219) [mPa·s] | viscosity (313 K, x1 = 0.037) [mPa·s] | viscosity (313 K, x1 = 0.1184) [mPa·s] | viscosity (313 K, x1 = 0.1728) [mPa·s] | viscosity (313 K, x1 = 0.4462) [mPa·s] | viscosity (313 K, x1 = 0.6298) [mPa·s] | viscosity (318 K, x1 = 0.4462) [mPa·s] | viscosity (318 K, x1 = 0.6298) [mPa·s] | viscosity (323 K, x1 = 0.4462) [mPa·s] | viscosity (323 K, x1 = 0.6298) [mPa·s] | viscosity (303 K, x1 = 0.5482) [mPa·s] | viscosity (313 K, x1 = 0.5482) [mPa·s] | viscosity (318 K, x1 = 0.5482) [mPa·s] | viscosity (323 K, x1 = 0.5482) [mPa·s]
1 | CCCC[n+]1ccn(C)c1.O=[N+]([O-])[O-] + O | 17.21 | 35.74 | 0.819 | 0.971 | 1.24 | 2.753 | 3.908 | 12.64 | 24.64 | 11 | 20.86 | 9.66 | 17.88 | – | – | – | –
2 | CCCCCCCCn1cc[n+](C)c1.F[B-](F)(F)F + O | – | – | – | – | – | – | – | – | – | – | – | – | – | 42.67 | 28.9 | 24.3 | 20.63
